Measured values reported in PMC11475281, “A Novel Liver Cancer-Selective Histone Deacetylase Inhibitor Is Effective against Hepatocellular Carcinoma and Induces Durable Responses with Immunotherapy” (ACS Pharmacology & Translational Science, 2024).
Where two headings read alike, the source gives them in different places.

How the values were obtained:
Hep-G2 cells = experiment: GLUT-2 uptake experiment (phloretin blockade, MTS); format: cell-based; conditions: Homo sapiens, read-out: Hep-G2 Cell Viability %; for viability at 1.25 µM: HepG2, 1.25 μM; for viability at 2.5 µM: HepG2, 2.5 μM; for viability at 6.25 µM: HepG2, 6.25 μM; for viability at 12.5 µM: HepG2, 12.5 μM
Procedure: We observed that Ph selectively mitigated the cytotoxicity of STR-V-53 against the Hep-G2 cell line with no apparent effect on the cytotoxicity of SAHA (Figure 2a). […] This matches our expectation because Hep-G2 cells overexpress GLUT-2 while VERO has limited expression of GLUT-2.[26]
MIDI 4-20% gel (Biorad, cat. 5671093) and ran at 150 V for 70 min. The gel was then transferred onto the Turbo PDVF membrane (Biorad, 1704273), and after blocking with 5% BSA for 1-2 h, the membrane was incubated overnight with primary antibodies Ac-Tubulin (sc-23950), Ac-H4 (sc-515319) (Santa Cruz Biotechnology), caspase 3 and clv-Caspase 3 (Cell signaling Technology), anti-p21WAF/CIP (ThermoFisher), anti-GAPDH (Aldrich-Sigma). On the second day, the membrane was washed with TBST for 3x5 min; a secondary antibody (LiCOR) was added, and the membrane was incubated with agitation for 1 h. After washing with TBS-T 3x5 mins, bands were quantified using the Odyssey CLx Image system.
Hep-G2 or VERO cells were seeded (2500 to 4,000 counts/well) into 96-well plates, in which each well contains 100 µL media. The cells were cultured overnight in the respective media described in the cell culture section above. On day 2, the cells were treated with 25 µM Phloretin for 24 h. On day 3, 200x stock solutions of STR-V-53 and SAHA were used to prepare 2x treatment solution by adding 1% stock solution in the media. Then, without removal of the media in 96-well plates, the same volumes of drug as the media were added directly to the wells with gentle pipetting to reach 1x drug solution with 25 µM Ph. After another 72 h, the media were removed, and new media (100 µL) added to the wells. MTS solution (20 µL) was added to each well. After 2.5-4 h incubation, the plates were read using a multiplate reader at 490 nm. The data were processed using GraphPad Prism 8.
Hep-G2 cells (5*106) were seeded in a 10 cm plate with MEM and incubated until 50% confluency before drug treatment. Cells were treated, with DMSO (control) and DMSO solutions of SAHA (5 µM) and STR-V-53 (15 µM) such that the final DMSO level was 0.1%,

Hep-G2 HCC cells = experiment: Cell cycle analysis by flow cytometry; format: cell-based, human; conditions: 48 h
Procedure: To determine if the HCC cell selective cytotoxicity of STR-V-53 results from its perturbation of the cell cycle pattern, we evaluated the effect of STR-V-53 on the cycle progression by flow cytometry using SAHA as a control (Figure 4).
Figure 4 Effect of STR-V-53 treatment on HCC cell cycle progression. (a–c) Human Hep-G2 HCC cells were cultured until 80% confluence in a 10 cm Petri dish. The cells were serum-starved overnight before drug treatment. Then, the cells were treated with 10 mL of 0.1% DMSO medium and 0.1% DMSO solution of SAHA (5 μM) or STR-V-53 (15 μM) for 48 h. Control group (ai); SAHA (5 μM)-treated group (aii), and STR-V-53 (15 μM)-treated group (aiii and biii). (c) Quantification of the cell cycle data from two independent experiments. Bars show mean plus standard deviation; *P < 0.0332; **P < 0.0021; ***P < 0.0002; ****P < 0.00001.
MIDI 4-20% gel (Biorad, cat. 5671093) and ran at 150 V for 70 min. […] After washing with TBS-T 3x5 mins, bands were quantified using the Odyssey CLx Image system.
Hep-G2 or VERO cells were seeded (2500 to 4,000 counts/well) into 96-well plates, in which each well contains 100 µL media. […] After 2.5-4 h incubation, the plates were read using a multiplate reader at 490 nm. […]
Then cells were treated with another 500 µL of 100 ug/mL PI staining at room temperature for 30 min. The cell cycle was analyzed with BD FACS Aria Illu analyzer, and the data were […]

Hep-G2 (HCC) = experiment: MTS cell viability assay, 72 h; format: cell-based, human; conditions: Table S2; read-out: Anti-proliferation IC50 Hep-G2
Excerpt: We then screened STR-V-53 and all the synthesized glycosylated HDACi for their effects on the viability of three cell lines: A549 (lung adenocarcinoma), Hep-G2 (HCC), and VERO (a normal kidney epithelial cell). We used SORA and STR-V-48, a previously disclosed nonglycosylated compound, as controls.[25] […] Additionally, compound STR-V-167, the peracetylated analog of STR-V-53, largely retained the Hep-G2 selectivity of STR-V-53 (Table S2). Subsequently, we evaluated the effects of STR-V-53 on cell proliferation using a panel of human HCC cell lines (Huh-7, SK-Hep-1, and Hep3B) as well as Kupffer cells (liver resident macrophages) by MTS assay. We observed that STR-V-53 is 7- to 16-fold more cytotoxic against these HCC cell lines relative to the Kupffer cells (Figure 1g). […] Based on their weak HDAC and cell proliferation inhibition activities, we de-emphasized further evaluation of the class III compounds.
10-017-CV), supplemented with 10% fetal bovine serum (FBS) (Corning, 35-010-CV). Hep-G2 cells were cultured in phenol red-free Minimum Essential Medium (MEM) (Corning, 17-305-CV), supplemented with 10% fetal bovine serum (FBS). SK-Hep-1 in ATCC-formulated EMEM (ATCC® 30–2003™); Huh-7 in DMEM (containing 4 mM L-glutamine and 1 g/L glucose) with […]
Kupffer Cell Media (Sekisui XenoTech, LLC, Cat. #K8700). Cells were seeded into a 96-well plate (2000 counts/100uL) for 24 h prior to treatment and then treated with various drug concentrations for 72 h. All drugs were dissolved in media with DMSO concentration maintained at 1%. The effect of compounds on cell viability was measured using the MTS assay (CellTiter 96 Aqueous One Solution and CellTiter 96 Non-Radioactive Cell Proliferation Assays, Promega, Madison, WI) as described by the manufacturer. IC50s were determined using Prism GraphPad 8. […]

Structure (SMILES): O=C(CCCCCCC(=O)Nc1ccccc1)NO [SAHA, vorinostat, reference compound]
- viability at 1.25 µM (Hep-G2 cells; No addition of Ph): 96.2%
- viability at 1.25 µM (Hep-G2 cells; Pre-treated with 25 μM Ph): 84%
- viability at 2.5 µM (Hep-G2 cells; No addition of Ph): 31.2%
- viability at 2.5 µM (Hep-G2 cells; Pre-treated with 25 μM Ph): 41.8%
- Cell cycle progression (Hep-G2 HCC cells; 5 μM): significant S phase arrest

Structure (SMILES): O=C(CCCCCCn1cc(-c2ccc(O[C@@H]3O[C@H](CO)[C@@H](O)[C@H](O)[C@H]3O)cc2)nn1)NO [STR-I-195]
- IC50 (Hep-G2 (HCC)): 22.3 ± 2 µM

Structure (SMILES): O=C(CCCCCCn1cc(-c2ccc(O[C@H]3O[C@H](CO)[C@@H](O)[C@H](O)[C@H]3O)cc2)nn1)NO [STR-V-53]
- viability at 6.25 µM (Hep-G2 cells; No addition of Ph): 104%
- viability at 6.25 µM (Hep-G2 cells; Pre-treated with 25 μM Ph): 103%
- viability at 12.5 µM (Hep-G2 cells; No addition of Ph): 25.4%
- viability at 12.5 µM (Hep-G2 cells; Pre-treated with 25 μM Ph): 70.3%
- Cell cycle progression (Hep-G2 HCC cells; 15 μM): significant S phase arrest

Structure (SMILES): O=C(CCCCCCn1cc(-c2ccc3cc(O[C@H]4O[C@H](CO)[C@@H](O)[C@H](O)[C@H]4O)ccc3c2)nn1)NO [STR-V-114]
- IC50 (Hep-G2 (HCC)): 6.7 ± 1.6 µM
